Assay results taken from PMC4116439 (ChemMedChem, 2014).
Substitutions are numbered along the chain they refer to.

Key:
rM3 = rM3 (Rattus norvegicus, UniProt P08483); experiment: rat M3 functional assay; type: cell-based; details: read-out: rM3 IC50, printed as rM1-rM4
rM2 = biological target: T1, rM2 (Rattus norvegicus, UniProt P10980); experiment: rat M2 functional assay; type: cell-based; details: read-out: rM2 IC50, printed as rM1-rM4
T1 sequence (P10980 1-466): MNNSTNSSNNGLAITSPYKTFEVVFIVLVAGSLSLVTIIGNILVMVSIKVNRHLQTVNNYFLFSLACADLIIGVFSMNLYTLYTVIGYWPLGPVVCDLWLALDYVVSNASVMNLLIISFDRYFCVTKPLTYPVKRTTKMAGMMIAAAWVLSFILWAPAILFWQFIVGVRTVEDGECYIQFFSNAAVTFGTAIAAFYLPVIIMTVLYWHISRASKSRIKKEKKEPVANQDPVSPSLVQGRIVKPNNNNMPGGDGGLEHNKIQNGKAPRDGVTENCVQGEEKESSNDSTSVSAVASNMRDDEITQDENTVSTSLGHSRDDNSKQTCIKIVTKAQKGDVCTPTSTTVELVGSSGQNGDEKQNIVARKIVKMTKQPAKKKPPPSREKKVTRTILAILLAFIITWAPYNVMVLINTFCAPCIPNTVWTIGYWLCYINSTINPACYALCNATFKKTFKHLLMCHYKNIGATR

rM1 = biological target: T2, rM1 (Rattus norvegicus, UniProt P08482); experiment: rat M1 functional assay; type: cell-based; details: read-out: rM1 IC50, printed as rM1-rM4
T2 sequence (P08482 1-460): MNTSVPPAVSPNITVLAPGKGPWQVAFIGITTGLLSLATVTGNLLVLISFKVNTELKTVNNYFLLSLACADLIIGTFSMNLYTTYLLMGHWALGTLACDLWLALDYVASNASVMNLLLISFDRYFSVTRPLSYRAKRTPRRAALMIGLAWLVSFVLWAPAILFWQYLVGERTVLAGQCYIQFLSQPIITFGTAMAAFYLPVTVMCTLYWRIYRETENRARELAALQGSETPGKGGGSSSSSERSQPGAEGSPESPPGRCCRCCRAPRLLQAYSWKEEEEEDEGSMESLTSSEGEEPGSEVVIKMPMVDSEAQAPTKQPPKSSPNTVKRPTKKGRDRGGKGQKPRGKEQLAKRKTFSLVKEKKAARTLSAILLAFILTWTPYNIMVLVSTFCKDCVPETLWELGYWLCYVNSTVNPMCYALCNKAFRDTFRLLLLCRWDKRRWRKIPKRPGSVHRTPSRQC

rM4 = biological target: T3, rM4 (Rattus norvegicus, UniProt P08485); experiment: rat M4 functional assay; type: cell-based; details: read-out: rM4 IC50, printed as rM1-rM4
T3 sequence (P08485 1-478): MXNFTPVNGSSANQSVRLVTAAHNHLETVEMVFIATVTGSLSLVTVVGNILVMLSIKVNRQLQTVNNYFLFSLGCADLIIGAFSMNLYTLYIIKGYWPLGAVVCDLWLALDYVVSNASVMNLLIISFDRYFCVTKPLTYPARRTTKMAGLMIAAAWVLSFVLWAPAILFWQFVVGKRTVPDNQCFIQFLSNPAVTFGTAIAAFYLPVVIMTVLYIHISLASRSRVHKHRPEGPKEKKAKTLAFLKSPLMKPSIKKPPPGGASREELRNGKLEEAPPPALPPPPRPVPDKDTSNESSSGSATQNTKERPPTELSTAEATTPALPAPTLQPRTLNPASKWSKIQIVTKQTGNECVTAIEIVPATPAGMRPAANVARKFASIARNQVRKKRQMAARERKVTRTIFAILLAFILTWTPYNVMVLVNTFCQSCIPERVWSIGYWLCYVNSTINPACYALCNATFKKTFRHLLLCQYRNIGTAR

[1] = tested on: 68 GPCRs, ion channels and transporters; experiment: Eurofins radioligand binding panel; details: 10 μM, 68 targets
human M1 = biological target: T4, human M1 (Homo sapiens, UniProt P11229); details: read-out: hM1 IC50; printed as hM1-M4; cited from earlier work
T4 sequence (P11229 1-460): T2 sequence (P08482 1-460) with V5A, S254T, S309P, K320R, G337A, V413I

human M3 = human M3 (Homo sapiens, UniProt P20309); details: read-out: hM3 IC50; printed as hM1-M4; cited from earlier work
Sequence of human M3 (P20309 whole entry): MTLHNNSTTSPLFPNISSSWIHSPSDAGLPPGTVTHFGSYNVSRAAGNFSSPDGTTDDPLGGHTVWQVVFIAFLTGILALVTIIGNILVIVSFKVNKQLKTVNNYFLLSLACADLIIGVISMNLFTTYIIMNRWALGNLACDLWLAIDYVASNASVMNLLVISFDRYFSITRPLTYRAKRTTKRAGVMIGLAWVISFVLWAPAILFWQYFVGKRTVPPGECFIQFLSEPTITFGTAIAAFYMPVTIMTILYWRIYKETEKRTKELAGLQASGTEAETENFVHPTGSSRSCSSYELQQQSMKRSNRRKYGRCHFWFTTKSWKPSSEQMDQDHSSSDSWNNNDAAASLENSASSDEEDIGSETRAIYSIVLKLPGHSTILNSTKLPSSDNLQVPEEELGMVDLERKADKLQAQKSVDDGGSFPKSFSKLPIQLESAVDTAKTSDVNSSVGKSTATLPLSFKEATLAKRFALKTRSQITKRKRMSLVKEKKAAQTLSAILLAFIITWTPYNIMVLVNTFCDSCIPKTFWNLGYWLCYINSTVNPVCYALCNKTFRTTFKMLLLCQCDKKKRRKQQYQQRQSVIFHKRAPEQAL

human M2 = biological target: T5, human M2 (Homo sapiens, UniProt P08172); details: read-out: hM2 IC50; printed as hM1-M4; cited from earlier work
T5 sequence (P08172 1-466): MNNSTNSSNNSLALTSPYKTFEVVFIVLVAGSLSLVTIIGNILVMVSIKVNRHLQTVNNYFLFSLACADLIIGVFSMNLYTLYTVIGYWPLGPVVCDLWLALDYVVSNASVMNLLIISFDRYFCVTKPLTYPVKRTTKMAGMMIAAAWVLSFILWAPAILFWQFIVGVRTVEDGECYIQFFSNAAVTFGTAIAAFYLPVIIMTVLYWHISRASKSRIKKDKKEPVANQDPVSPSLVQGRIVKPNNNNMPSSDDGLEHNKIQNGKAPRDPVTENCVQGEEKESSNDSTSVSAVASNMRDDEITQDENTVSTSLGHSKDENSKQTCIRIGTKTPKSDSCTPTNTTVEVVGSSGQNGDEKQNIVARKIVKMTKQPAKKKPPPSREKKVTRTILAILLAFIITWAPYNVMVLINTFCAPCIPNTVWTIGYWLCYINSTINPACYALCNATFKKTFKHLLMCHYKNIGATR

human M4 = biological target: T6, human M4 (Homo sapiens, UniProt P08173); details: read-out: hM4 IC50; printed as hM1-M4; cited from earlier work
T6 sequence (P08173 1-479): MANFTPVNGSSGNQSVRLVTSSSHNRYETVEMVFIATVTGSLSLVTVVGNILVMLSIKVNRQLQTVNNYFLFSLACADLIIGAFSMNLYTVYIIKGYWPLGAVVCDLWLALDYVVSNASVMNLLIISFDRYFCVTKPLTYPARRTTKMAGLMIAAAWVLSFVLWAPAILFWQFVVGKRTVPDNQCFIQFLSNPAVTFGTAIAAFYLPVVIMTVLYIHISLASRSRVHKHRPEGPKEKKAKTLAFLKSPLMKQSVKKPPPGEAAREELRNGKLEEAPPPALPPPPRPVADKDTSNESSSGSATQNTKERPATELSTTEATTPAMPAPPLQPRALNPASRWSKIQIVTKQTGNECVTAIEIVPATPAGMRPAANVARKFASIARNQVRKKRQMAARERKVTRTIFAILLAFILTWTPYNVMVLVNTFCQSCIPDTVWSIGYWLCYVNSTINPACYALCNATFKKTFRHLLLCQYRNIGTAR

Sequence of rM3 (P08483 whole entry): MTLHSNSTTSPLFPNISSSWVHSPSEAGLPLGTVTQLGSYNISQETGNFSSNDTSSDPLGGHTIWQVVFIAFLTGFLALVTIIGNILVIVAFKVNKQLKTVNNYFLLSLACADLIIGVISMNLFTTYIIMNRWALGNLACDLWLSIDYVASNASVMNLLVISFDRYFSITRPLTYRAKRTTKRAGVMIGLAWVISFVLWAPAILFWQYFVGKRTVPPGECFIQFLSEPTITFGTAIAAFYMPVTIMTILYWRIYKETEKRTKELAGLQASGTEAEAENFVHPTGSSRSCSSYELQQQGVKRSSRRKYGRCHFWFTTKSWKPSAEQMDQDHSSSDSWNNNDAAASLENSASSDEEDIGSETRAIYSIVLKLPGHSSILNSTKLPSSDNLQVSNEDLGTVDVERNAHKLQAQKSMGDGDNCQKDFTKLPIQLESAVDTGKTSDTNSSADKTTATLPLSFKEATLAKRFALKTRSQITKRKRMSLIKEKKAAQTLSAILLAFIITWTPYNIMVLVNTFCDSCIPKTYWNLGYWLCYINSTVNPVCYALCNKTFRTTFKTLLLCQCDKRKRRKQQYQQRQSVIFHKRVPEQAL

IC50 (rM3) [µM]	IC50 (rM2) [µM]	IC50 (rM1) [µM]	IC50 (rM4) [µM]	inhibition in radioligand binding panel [1] [%]	Compound	IC50 (human M1) [µM]	IC50 (human M3) [µM]	IC50 (human M2) [µM]	IC50 (human M4) [µM]
> 30	> 30	> 30	> 30	≤ 50	CC(=O)c1cccc(OCc2cc(C(=O)N(C)[C@@H](C)c3ccccn3)no2)c1 [(S)-16]				
					O=C(c1ccc(F)c(F)c1)N1CCN2C(=O)c3ccccc3[C@@]12c1ccc(Cl)cc1 [compound 5]	> 30	> 30	> 30	> 30
